In patent publication US11667602B2, “Compounds and their use” (AstraZeneca AB, priority 2020, dated 2023):
pEC50: −log10 of the molar value. Values after ≈ are worked out from the molar mass of the structure shown.

Tests used:
[1] = Human Plasma Protein Binding (Test B); format: in vitro ADME; conditions: fraction unbound (fu)
How it was run: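 Human plasma protein binding run per the published Wernevik et al. (2020) integrated DMPK panel protocol. Values are fraction unbound (fu, % free); repeat runs averaged arithmetically.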

[2] = Human Liver Microsomal Stability (Test C); format: in vitro ADME; conditions: human, liver microsomes
How it was run: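 Human liver microsome incubation per the Wernevik et al. integrated DMPK panel protocol. Intrinsic clearance reported as CLint in μl/min/mg protein, averaged arithmetically over repeat runs.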

[3] = molecular target: T1, human RXFP1 (Homo sapiens, UniProt Q9HBX9); experiment: RXFP1 Hu cAMP (Test A); format: cell-based; design: expressed in transfected cells; host or cells: Jump-In T-REx CHO-K1 cells (ThermoFisher), induced with 10 ng/ml doxycycline for 24 h; conditions: RXFP1 Hu cAMP; for pEC50: read-out: Test A EC50
T1 sequence (Q9HBX9 1-757): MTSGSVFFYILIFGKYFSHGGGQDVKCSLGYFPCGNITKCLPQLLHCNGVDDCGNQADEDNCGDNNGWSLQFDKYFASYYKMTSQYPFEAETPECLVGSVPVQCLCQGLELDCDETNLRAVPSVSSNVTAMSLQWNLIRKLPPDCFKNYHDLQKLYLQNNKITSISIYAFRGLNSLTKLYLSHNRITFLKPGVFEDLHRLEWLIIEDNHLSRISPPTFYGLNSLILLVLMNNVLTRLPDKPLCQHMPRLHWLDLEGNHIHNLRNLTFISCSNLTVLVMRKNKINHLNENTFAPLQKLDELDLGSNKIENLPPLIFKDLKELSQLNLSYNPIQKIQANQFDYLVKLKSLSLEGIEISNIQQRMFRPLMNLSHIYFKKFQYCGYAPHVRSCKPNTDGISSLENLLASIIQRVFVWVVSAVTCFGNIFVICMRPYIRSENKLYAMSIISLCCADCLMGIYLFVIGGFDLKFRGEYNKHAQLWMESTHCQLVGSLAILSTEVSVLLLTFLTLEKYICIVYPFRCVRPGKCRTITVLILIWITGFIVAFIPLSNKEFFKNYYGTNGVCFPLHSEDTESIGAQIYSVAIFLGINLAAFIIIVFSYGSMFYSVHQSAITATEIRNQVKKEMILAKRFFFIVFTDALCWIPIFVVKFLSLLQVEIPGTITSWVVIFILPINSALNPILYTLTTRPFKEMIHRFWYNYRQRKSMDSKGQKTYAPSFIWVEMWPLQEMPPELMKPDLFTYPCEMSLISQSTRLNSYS
How it was run: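 Doxycycline-induced (10 ng/ml, 24 h) CHO-K1 cells stably expressing human RXFP1; cAMP read by competitive HTRF after 2 h at room temperature, with 0.5 mM IBMX final.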

[4] = Rat Hepatocyte Stability (Test E); format: in vitro ADME; conditions: rat, hepatocytes, geometric mean if run multiple times
How it was run: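 Run per the published AstraZeneca-type rat hepatocyte stability protocol (Wernevik et al. panel). Values are mean intrinsic clearance, Clint in μl/min/10^6 cells; geometric mean used for repeated runs.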

[5] = Solubility (Test F); format: physicochemical; conditions: arithmetic mean if run multiple times
Description: The assay was conducted according to the Solubility Assay described in pages 164-167 of Wernevik, J. et al., “A Fully Integrated Assay Panel for Early Drug Metabolism and Pharmacokinetics Profiling”, Assay and Drug Development Technologies, 2020, 18(4), 157-179. Data are reported in Table 36 as solubility ([…]. Where the assay was run multiple times for the same compound, the arithmetic mean is reported.

Structure (SMILES) | Test B Human Plasma Protein Binding (% free) [1] [% free] | microsomal CLint [2] [µL/min/mg] | Test A Sinf [3] [%] | pEC50 [3] | hepatocyte CLint [4] [µL/min/1e6 cells] | solubility [5] [µM]
COc1cc(F)c(-c2cccc(C(=O)O)c2)cc1C(=O)N[C@H]1[C@@H](C(=O)Nc2cccc(S(=O)(=O)C(F)(F)F)c2)[C@@H]2C=C[C@H]1C2 (racemic) [Example 225, rac-2′-Fluoro-4′-methoxy-5′-(((1R,2R,3S,4S)-3-((3-((trifluoromethyl)sulfonyl)phenyl)carbamoyl)bicyclo[2.2.1]hept-5-en-2-yl)carbamoyl)-[1,1′-biphenyl]-3-carboxylic acid] | 0.10 | 6.6 | 98 | 6.62 | 22 | 10 (≈ 6.33 µg/mL)
COc1cc(F)c(O[C@H]2CC[C@@](C)(C(=O)O)CC2)cc1C(=O)Nc1c(C)cccc1C(=O)NCC1(C)CCC1 [Example 156, (1s,4s)-4-(2-Fluoro-4-methoxy-5-((2-methyl-6-(((1-methylcyclobutyl)methyl)carbamoyl)phenyl)carbamoyl)phenoxy)-1-methylcyclohexane-1-carboxylic acid] | 3.2 | 4.3 | 97 | – | 22 | 770 (≈ 416 µg/mL)
COc1cc(F)c(O[C@H]2CC[C@@](C)(C(=O)O)CC2)cc1C(=O)N[C@@H]1CCC[C@@H]1C(=O)NCC(C)(C)C#N [Example 69] | 33 | 6.3 | 93 | < 5.57 | 6.4 | 970 (≈ 502 µg/mL)
COc1cc(C#N)c(O[C@H]2CC[C@@](C)(C(=O)O)CC2)cc1C(=O)N[C@@H]1[C@H]2CC[C@H](C2)[C@@H]1C(=O)NCC1(OC)CCC1 [Example 80] | 16 | 8 | 105 | 6.39 | 23 | 890 (≈ 505 µg/mL)
COc1cc(F)c(-c2cccc(CC(=O)O)c2)cc1C(=O)N[C@@H]1CCC[C@@H]1C(=O)Nc1cccc(S(=O)(=O)C(F)(F)F)c1 [Example 318] | 0.55 | 13 | 89 | 6.22 | 37 | 710 (≈ 442 µg/mL)
COc1cc(F)c(O[C@H]2CC[C@@](C)(C(=O)O)CC2)cc1C(=O)Nc1c(C)cc(C)cc1C(=O)NCC1(C)CCC1 [Example 211, (1s,4s)-4-(5-((2,4-Dimethyl-6-(((1-methylcyclobutyl)methyl)carbamoyl)phenyl)carbamoyl)-2-fluoro-4-methoxyphenoxy)-1-methylcyclohexane-1-carboxylic acid] | 1.4 | 5.2 | 100 | < 5.03 | 12 | 29 (≈ 16.1 µg/mL)
COc1cc(C#N)c(O[C@H]2C[C@@](C)(C(=O)O)C2)cc1C(=O)N[C@@H]1[C@H]2CC[C@H](C2)[C@@H]1C(=O)NCC1(C)CCC1 [Example 148, (1S,3s)-3-(2-cyano-4-methoxy-5-(((1S,2R,3S,4R)-3-(((1-methylcyclobutyl)methyl)carbamoyl)bicyclo[2.2.1]heptan-2-yl)carbamoyl)phenoxy)-1-methylcyclobutane-1-carboxylic acid] | 0.59 | 7.4 | – | < 5.30 | 18 | 890 (≈ 466 µg/mL)
COc1cc(C#N)c(O[C@H]2CC[C@@](C)(C(=O)O)CC2)cc1C(=O)N[C@@H]1[C@H]2CC[C@H](C2)[C@@H]1C(=O)NCC1(F)CCOCC1 [Example 110] | 44 | < 3 | 102 | 6.13 | 19 | 950 (≈ 556 µg/mL)

Results, then the molecule that gave them:

Test B Human Plasma Protein Binding (% free) [1] [% free] | microsomal CLint [2] [µL/min/mg] | Test A Sinf [3] [%] | pEC50 [3] | hepatocyte CLint [4] [µL/min/1e6 cells] | solubility [5] [µM] | Structure (SMILES)
0.50 | 13 | 103 | 6.68 | 14 | > 1000 | COc1cc(F)c(-c2ccc(C(=O)O)c(F)c2)cc1C(=O)N[C@@H]1[C@H]2CC[C@H](C2)[C@@H]1C(=O)Nc1cccc(S(=O)(=O)C(F)(F)F)c1 [Example 236, 2′,3-Difluoro-4′-methoxy-5′-(((1S,2R,3S,4R)-3-((3-((trifluoromethyl)sulfonyl)phenyl)carbamoyl)bicyclo[2.2.1]heptan-2-yl)carbamoyl)-[1,1′-biphenyl]-4-carboxylic acid]
0.39 | 32 | 93 | < 6.46 | 14 | 680 (≈ 434 µg/mL) | COc1cc(F)c(C2=CCC(C(=O)O)CC2)cc1C(=O)N[C@@H]1[C@H]2CC[C@H](C2)[C@@H]1C(=O)Nc1cccc(S(=O)(=O)C(F)(F)F)c1 (mixture of isomers) [Example 267, (RS)-2′-Fluoro-4′-methoxy-5′-(((1S,2R,3S,4R)-3-((3-((trifluoromethyl)sulfonyl)phenyl)carbamoyl)bicyclo[2.2.1]heptan-2-yl)carbamoyl)-2,3,4,5-tetrahydro-[1,1′-biphenyl]-4-carboxylic acid]
47 | < 3 | 100 | 4.39 | 12 | 790 (≈ 428 µg/mL) | COc1cc(C#N)c(O[C@H]2CC[C@@](C)(C(=O)O)CC2)cc1C(=O)N[C@@H]1[C@H]2CC[C@H](C2)[C@@H]1C(=O)NCC(C)(C)O [Example 76]
9.3 | 8 | 75 | < 5.37 | 120 | 210 (≈ 108 µg/mL) | COc1cc(F)c(O[C@H]2CC[C@@H](C(=O)O)CC2)cc1C(=O)N[C@@H]1[C@H]2CC[C@H](C2)[C@@H]1C(=O)NCCC1CC1 [Example 176]
0.10 | 21 | 101 | 7.06 | 23 | 54 (≈ 33.9 µg/mL) | COc1cc(F)c(-c2ccc(C(=O)O)cc2)cc1C(=O)N[C@@H]1[C@H]2CC[C@H](C2)[C@@H]1C(=O)Nc1cccc(S(F)(F)(F)(F)F)c1 [Example 209, 2′-Fluoro-4′-methoxy-5′-(((1S,2R,3S,4R)-3-((3-(pentafluoro-λ6-sulfaneyl)phenyl)carbamoyl)bicyclo[2.2.1]heptan-2-yl)carbamoyl)-[1,1′-biphenyl]-4-carboxylic acid]
0.74 | 28 | 102 | 7.32 | 63 | 980 (≈ 596 µg/mL) | COc1cc(F)c(O[C@H]2CC[C@@H](C(=O)O)CC2)cc1C(=O)N[C@@H]1[C@H]2CC[C@H](C2)[C@@H]1C(=O)Nc1cccc(OC(F)(F)F)c1 [Example 20]
1.3 | 14 | 94 | 6.38 | 13 | 390 (≈ 256 µg/mL) | COc1cc(F)c(O[C@H]2CC[C@@H](C(=O)O)CC2)cc1C(=O)N[C@@H]1[C@H]2CC[C@H](C2)[C@@H]1C(=O)Nc1ccc(S(=O)(=O)C(F)(F)F)cc1 [Example 15, (1S,4s)-4-(2-Fluoro-4-methoxy-5-(((1S,2R,3S,4R)-3-((4-((trifluoromethyl)sulfonyl)phenyl)carbamoyl)bicyclo[2.2.1]heptan-2-yl)carbamoyl)phenoxy)cyclohexane-1-carboxylic acid]
0.55 | 39 | 110 | – | 28 | 850 (≈ 533 µg/mL) | COc1cc(F)c(O[C@H]2CC[C@@H](C(=O)O)CC2)cc1C(=O)N[C@@H]1[C@H]2CC[C@H](C2)[C@@H]1C(=O)Nc1ccc(F)c(OC(F)(F)F)c1 [Example 21]
